Here are results for 59 molecules from US8993585B2, “Cyclic amine substituted pyrimidinediamines as PKC inhibitors” (Rigel Pharmaceuticals, Inc., priority 2007, dated 2015).

For the first experiment, the system named is Human primary T cells. Put plainly: IL-2 ELISA, Human Primary T Cell, Anti-CD3+CD28+ (Example 3). In kind it is cell-based. As to conditions: Homo sapiens, T-cell, 24 h, anti-CD3+CD28 stimulation. On the procedure: Human primary T cell isolation and culture: Human primary T cells were prepared as follows. […] The cells at the serum:ficoll interface were recovered and washed twice with 5 volumes of PBS. […] The primary T-cells were then washed twice with PBS to remove the IL-2.
Primary T cell stimulation and IL2 ELISA: Human primary T cells (100,000 cells per well) were pre-incubated with or without test compound in Yssel's medium for 1 hr at 37° C. Cells were then stimulated by transferring them to round-bottom 96-well plates pre-coated with 1 ug/ml αCD3 and 5 μg/ml αCD28. For counter assay, cells were instead stimulated by adding 8× stock solutions of PMA and ionomycin in Yssels (for final concentrations of 0.5 ng/ml PMA and 0.1 uM ionomycin, both from Calbiochem).
For `COc1cc(Nc2ncc(F)c(NC3CC(C)(C)N(C)C(C)(C)C3)n2)cc(OCCn2cccc2)c1` [Compound I-437], 170 nM corresponded to half-maximal inhibition (IC50). This counts as sub-micromolar.

`CN1C(=O)c2ccc(Nc3ncc(F)c(NC4CC(C)(C)NC(C)(C)C4)n3)cc2C1=O` [II-153] had an IC50 of 1800 nM.

Molecule `CN1CCN(c2ccc(Nc3ncc(F)c(N(Cc4ccccc4)C4CC(C)(C)N(C)C(C)(C)C4)n3)cc2C(F)(F)F)CC1` [Compound I-311] yielded a half-inhibitory concentration (IC50) of 804 nM.

As for `COc1cc(Nc2ncc(F)c(N(Cc3ccc(-c4ccccc4)cc3)C3CC(C)(C)N(C)C(C)(C)C3)n2)cc(OC)c1` [Compound I-317], half-maximal inhibition (IC50) was put at 2420 nM.

Molecule `CN1C(C)(C)CC(Nc2nc(Nc3nnc(C(F)(F)F)s3)ncc2F)CC1(C)C` [II-13] came in with an IC50 of 11200 nM.

In turn, `CN1C(C)(C)CC(N(Cc2cc3c(cc2Br)OCO3)c2nc(Nc3ccc4c(c3)OCCO4)ncc2F)CC1(C)C` [II-90] displayed an IC50 of 5580 nM.

As for `COc1ccc(Nc2ncc(F)c(N(Cc3ccccc3)C3CC(C)(C)N(C)C(C)(C)C3)n2)cc1OC(F)F` [Compound I-309], inhibition was half-maximal at 642 nM (IC50).

`COc1cc(Nc2ncc(F)c(NC3C[C@H](C)N(C)[C@@H](C)C3)n2)cc(-n2nnnc2C)c1` (stereo partly drawn) [IV-1, 5-Fluoro-N2-[3-methoxy-5-(5-methyl-tetrazol-1-yl)]phenyl-N4-(1,2,6,-trimethylpiperidin-4-yl)-2,4-pyrimidinediamine, trans isomer] came in with an IC50 of 176 nM.

`COc1cccc2sc(Nc3ncc(F)c(NC4CC(C)(C)N(C)C(C)(C)C4)n3)nc12` [II-20] displayed an IC50 of 2100 nM.

As to `CN1C(C)(C)CC(Nc2nc(Nc3ccc4c(c3)OC3(CCCCC3)O4)ncc2F)CC1(C)C` [II-114], the IC50 came to 2630 nM.

As to `CCN(CC)C1CCC(Nc2nc(Nc3ccc(N4CCN(S(C)(=O)=O)CC4)c(C(F)(F)F)c3)ncc2F)CC1` (centres unmarked) [IV-9, N4-(4-Diethylamino)cyclohexyl-5-fluoro-N2-[4-(4-methylsulfonylpiperazino)-3-trifluoromethyl]phenyl-2,4-pyrimidinediamine], the IC50 turned out to be 3450 nM. This IC50 and that of the molecule before are within 1.5-fold of each other.

`COC(=O)CCN1C(C)(C)CC(Nc2nc(Nc3ccc(OC)c(Cl)c3)ncc2F)CC1(C)C` [Compound I-293] gave an IC50 of 2190 nM.

With `CN1C(C)(C)CC(Nc2nc(Nc3ccc4c(c3)OC(C)(C)C(=O)N4CCCF)ncc2F)CC1(C)C` [II-78], the IC50 was found to be 369 nM.

The molecule `CN1C(C)(C)CC(Nc2nc(Nc3ccc4c(c3)OCc3nccn3-4)ncc2F)CC1(C)C` [II-11] showed an IC50 of 1320 nM.

For the molecule `CCCN1C(=O)COc2cc(Nc3ncc(F)c(NC4CC(C)(C)N(C)C(C)(C)C4)n3)ccc21` [II-59], the half-maximal inhibitory concentration (IC50) is 148 nM.

Molecule `CC(C)n1c(=O)oc2cc(Nc3ncc(C#N)c(NC4CC(C)(C)NC(C)(C)C4)n3)ccc21` [II-162] gave an IC50 of 1130 nM. This IC50 is about 7.6-fold higher than that of the molecule before.

For `CC(C)N1C(=O)C(C)(C)Oc2cc(Nc3ncc(C#N)c(NC4CC(C)(C)N(C)C(C)(C)C4)n3)ccc21` [II-74], the IC50 stood at 349 nM.

In the case of `CCN1C(=O)C(F)(F)Oc2cc(Nc3ncc(C#N)c(NC4CC(C)(C)N(C)C(C)(C)C4)n3)cnc21` [II-65], it took 255 nM to reach half-maximal inhibition (IC50).

Turning to `CN1C(C)(C)CC(Nc2nc(Nc3nc(-c4ccc(F)cc4F)cs3)ncc2F)CC1(C)C` [II-141], the IC50 stood at 1000 nM. Against the preceding molecule, the IC50 is about 3.9-fold higher.

The molecule `COc1cc(Nc2ncc(F)c(NC3CC(C)(C)N(C)C(C)(C)C3)n2)cc(OCCN2CCOCC2)c1` [Compound I-431] had an IC50 of 450 nM.

On to `CN1C(C)(C)CC(Nc2nc(Nc3nc4ccccc4s3)ncc2F)CC1(C)C` [II-16], for which the IC50 was 1640 nM.

Molecule `CN1C(C)(C)CC(Nc2nc(Nc3cccc(OC(F)(F)F)c3)ncc2C(F)(F)F)CC1(C)C` [Compound I-242] yielded an IC50 of 8190 nM.

In the case of `CN1C(=O)CCc2cc(Nc3ncc(F)c(NC4CC(C)(C)N(C)C(C)(C)C4)n3)ccc21` [II-4], the concentration for half-maximal inhibition (IC50) stood at 1720 nM. This IC50 lies about 4.8-fold lower than the previous one.

`CN1C(C)(C)CC(N(Cc2ccc3ccccc3n2)c2nc(Nc3ccc4c(c3)OCCO4)ncc2F)CC1(C)C` [II-89]: it took 7670 nM to reach half-maximal inhibition (IC50).

Still in this experiment, the particulars now being: T-cell, anti-CD3+CD28 stimulation, 24 hours.
With `CN1C(C)(C)CC(Nc2nc(Nc3ccc4c(c3)OCCO4)ncc2C#C[Si](C)(C)C)CC1(C)C` [II-150], the IC50 worked out at 3580 nM.

The experiment is the same for the next values; noted with them: anti-CD3+CD28 stimulation, 24 hours.
As for `CC1(C)CC(Nc2nc(Nc3cc(OCC(F)(F)F)cc(OCC(F)(F)F)c3)ncc2C(N)=O)CC(C)(C)N1` [Compound I-408], the IC50 came out at 1040 nM.

On to `CN1C(C)(C)CC(Nc2nc(Nc3ccc(NC(=O)c4ccco4)c(Cl)c3)ncc2Cl)CC1(C)C` [Compound I-351], for which the midpoint of inhibition, the IC50, lay at 198 nM.

`CN1C(C)(C)CC(Nc2nc(Nc3ccc(N4CCC(F)(F)CC4)c(F)c3)ncc2F)CC1(C)C` [Compound I-51] registered an IC50 of 1010 nM.

For the molecule `COc1ccc(Nc2ncc(F)c(NC3CC(C)(C)N(C)C(C)(C)C3)n2)cc1OC(C)C` [Compound I-360], the IC50 is 2200 nM.

`COc1cc(Nc2ncc(F)c(NC3CC(C)(C)N(C)C(C)(C)C3)n2)cc(OC)c1` [Compound I-307]: the IC50 was 327 nM.

As to `COc1ccc(Nc2ncc(F)c(NC3CC(C)(C)N(C)C3(C)C)n2)cc1C(F)(F)F` (centres unmarked) [Compound I-283, 5-Fluoro-N2-(4-methoxy-3-trifluoromethyl)phenyl-N4-(1,2,2,5,5-pentamethylpyrrolidin-3-yl)-2,4-pyrimidinediamine], the IC50 worked out at 2700 nM.

`COc1cc(Nc2ncc(Br)c(NC3CC(C)(C)N(C)C(C)(C)C3)n2)cc(OC)c1OC` [Compound I-276] had an IC50 of 1830 nM. The IC50 values of the last two molecules are within 1.5-fold of each other.

For `COc1cc(Cl)c(Nc2ncc(F)c(NC3CC(C)(C)N(C)C(C)(C)C3)n2)cc1OC` [Compound I-386], 3210 nM corresponded to half-maximal inhibition (IC50).

Molecule `CN1C(C)(C)CC(Nc2nc(Nc3ccc(N4CCOCC4)c(C(F)(F)F)c3)ncc2Cl)CC1(C)C` [Compound I-241] gave an IC50 of 361 nM. This IC50 is about 8.9-fold lower than that of the molecule before.

Molecule `CN1C(C)(C)CC(Nc2nc(Nc3ccc(OC(F)(F)F)c(Cl)c3)ncc2F)CC1(C)C` [Compound I-334] came in with an IC50 of 1010 nM.

`CN1CCN(c2ccc(Nc3ncc(F)c(NC4CC(C)(C)N(C)C(C)(C)C4)n3)cc2CO)CC1` [Compound I-63] had an IC50 of 1850 nM. Against the preceding molecule, the IC50 is about 1.8-fold higher.

Molecule `CC(C)Oc1ccc(Nc2ncc(F)c(NC3CC(C)(C)N(C)C(C)(C)C3)n2)cc1Cl` [Compound I-346] had an IC50 of 248 nM.

In turn, `Cc1cnc(Nc2ccc(C#N)c(Cl)c2)nc1NC1CC(C)(C)N(C)C(C)(C)C1` [Compound I-28] registered an IC50 of 455 nM. Against the preceding molecule, the IC50 is about 1.8-fold higher.

`COC(=O)/C=C/N1C(C)(C)CC(Nc2nc(Nc3ccc(OC)c(C(F)(F)F)c3)ncc2F)CC1(C)C` [Compound I-301] registered an IC50 of 951 nM.

The molecule `CN1C(C)(C)CC(Nc2nc(Nc3ccc4c(c3)OCC(=O)N4CC3CC3)ncc2F)CC1(C)C` [II-77] registered an IC50 of 101 nM.

`COc1ccc(Nc2ncc(F)c(N(C)C3CC(C)(C)N(C)C(C)(C)C3)n2)cc1Cl` [Compound I-58] displayed an IC50 of 2000 nM.

Molecule `CC1(C)CC(Nc2nc(Nc3cc(OCC(F)(F)F)cc(OCC(F)(F)F)c3)ncc2C#N)CC(C)(C)N1` [Compound I-419] returned an IC50 of 270 nM.

`COc1cc(Nc2ncc(C(N)=O)c(NC3CC(C)(C)NC(C)(C)C3)n2)cc(-n2cnnn2)c1` [Compound I-389] registered an IC50 of 5420 nM.

Turning to `COc1cc(Nc2ncc(C)c(NC3CC(C)(C)N(C)C(C)(C)C3)n2)cc(OC)c1OC` [Compound I-16], the IC50 was 5280 nM.

Turning to `CN1C(C)(C)CC(Nc2nc(Nc3ccc(N4CCNCC4)c(C(F)(F)F)c3)ncc2[N+](=O)[O-])CC1(C)C` [Compound I-75], it took 11300 nM to reach half-maximal inhibition (IC50).

Molecule `CCOC(=O)c1cnc(Nc2ccc(N3CCN(S(C)(=O)=O)CC3)c(C(F)(F)F)c2)nc1NC1CC(C)(C)N(C)C(C)(C)C1` [Compound I-83] displayed an IC50 of 7760 nM.

The molecule `CCNC(=O)Nc1cccc(Nc2ncc(F)c(NC3CC(C)(C)N(C)C(C)(C)C3)n2)c1` [Compound I-138] came in with an IC50 of 3150 nM. This IC50 lies about 2.5-fold lower than the previous one.

For the molecule “5-Fluoro-N2-(4-methyl-cyano)phenyl-N4-(1,2,2,5,5-pentamethylpyrrolidin-3-yl)-2,4-pyrimidinediamine [Compound I-278]”, the midpoint of inhibition, the IC50, lay at 1280 nM.

`CN1C(C)(C)CC(Nc2nc(Nc3cccc(C#N)c3)ncc2C(N)=O)CC1(C)C` [Compound I-86] showed an IC50 of 4990 nM.

Take `CN1C(C)(C)CC(Nc2nc(Nc3ccc(Oc4ncccn4)c(Cl)c3)ncc2F)CC1(C)C` [Compound I-338]: the IC50 stood at 360 nM.

Molecule `COc1cc(Nc2ncc(F)c(NC3CCN(Cc4ccncc4)CC3)n2)cc(-n2nnnc2C)c1` [III-10, 5-fluoro-N2-[3-methoxy-5-(5-methyl-1H-tetrazol-1-yl)]phenyl-N4-[1-(pyridin-4-yl)methylpiperidin-4-yl]-2,4-pyrimidinediamine] came in with an IC50 of 2220 nM.

With `CN1C(C)(C)CC(Nc2nc(Nc3ccc(F)c(-c4ccoc4)c3)ncc2F)CC1(C)C` [Compound I-192], it took 941 nM to reach half-maximal inhibition (IC50).

`CN1C(C)(C)CC(Nc2ccnc(Nc3ccc(N4CCN(S(C)(=O)=O)CC4)c(C(F)(F)F)c3)n2)CC1(C)C` [Compound I-228] gave an IC50 of 720 nM.

`CN1C(C)(C)CC(Nc2nc(Nc3cccc(-c4ccncc4)c3)ncc2F)CC1(C)C` [Compound I-79]: the IC50 worked out at 552 nM.

For the molecule `CCOC(=O)c1cnc(Nc2cccc(C#N)c2)nc1NC1CC(C)(C)N(C)C(C)(C)C1` [Compound I-81], the IC50 worked out at 28600 nM.

`COc1cc(Nc2ncc(C#N)c(NC3CC(C)(C)N(C)C(C)(C)C3)n2)cc(-n2cnnn2)c1` [Compound I-404] displayed an IC50 of 170 nM.

`COc1cc(F)cc(Nc2ncc(F)c(NC3CC(C)(C)N(C)C(C)(C)C3)n2)c1` [Compound I-443] displayed an IC50 of 400 nM.

The molecule `COc1cc(Nc2ncc(Cl)c(NC3CC(C)(C)N(C)C(C)(C)C3)n2)ccc1NC(=O)c1ccco1` [Compound I-352] returned an IC50 of 1070 nM. This IC50 is about 2.7-fold higher than that of the molecule before.

`COC(=O)CCN1C(C)(C)CC(Nc2nc(Nc3ccc(OC)c(C(F)(F)F)c3)ncc2F)CC1(C)C` [Compound I-295] registered an IC50 of 5100 nM.
